According to ChEMBL document CHEMBL1201862, “PubChem BioAssay data set” (2004):
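Tested at 5 concentrations; 48 h exposure; 96-well plates; endpoints linearly interpolated, else capped at highest concentration. GI50 = concentration required for 50% inhibition of growth.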 Activity calls are given as the source filed them. No stated cut-off is given here; in the data, active = GI50 up to about 1.1 µM and inactive = higher.

Key:
Experiment in all cases: NCI-60 cell line screen, 48 h
[1] = system: OVCAR-3
[2] = system: RXF 393
[3] = system: MDA-MB-435
[4] = system: SK-OV-3
[5] = system: NCI-H522
[6] = system: SF-268
[7] = system: T47D
[8] = system: SF-539
[9] = system: HT-29
[10] = system: HOP-62
[11] = system: MDA-MB-231
[12] = system: LOX IMVI
[13] = system: SN12C
[14] = system: IGROV-1
[15] = system: KM12
[16] = system: M14
[17] = system: NCI-H226
[18] = system: UO-31
[19] = system: SK-MEL-2
[20] = system: K562
[21] = system: OVCAR-4
[22] = system: HCT-116
[23] = system: U-251
[24] = system: COLO 205
[25] = system: NCI-H460
[26] = system: OVCAR-8
[27] = system: PC-3
[28] = system: CCRF-CEM
[29] = system: SF-295
[30] = system: NCI/ADR-RES
[31] = system: HCT-15
[32] = system: ACHN
[33] = system: UACC-62
[34] = system: HL-60
[35] = system: MOLT-4
[36] = system: DU-145
[37] = system: CAKI-1
[38] = system: EKVX
[39] = system: HOP-92
[40] = system: SNB-75
[41] = system: Malme-3M
[42] = system: MCF7
[43] = system: A549
[44] = system: SK-MEL-28
[45] = system: RPMI-8226
[46] = system: OVCAR-5
[47] = system: 786-0
[48] = system: SK-MEL-5
[49] = system: TK-10
[50] = system: UACC-257
[51] = system: NCI-H23
[52] = system: SR
[53] = system: HCC 2998
[54] = system: SW-620
[55] = system: SNB-19
[56] = system: Hs-578T
[57] = system: MDA-N

CCOC(=O)CCc1c(C(=O)OCC)[nH]c(/C=C2\NC(=O)C(C)=C2CC)c1C
GI50 [1]: 18.5 µM (inactive)
GI50 [2]: 23.2 µM (inactive)
GI50 [3]: > 100 µM (inactive)
GI50 [4]: 22 µM (inactive)
GI50 [5]: 14.5 µM (inactive)
GI50 [6]: 26.9 µM (inactive)
GI50 [7]: 10.1 µM (inactive)
GI50 [8]: 27.9 µM (inactive)
GI50 [9]: 50.7 µM (inactive)
GI50 [10]: 14.5 µM (inactive)
GI50 [11]: 19.8 µM (inactive)
GI50 [12]: 22.5 µM (inactive)
GI50 [13]: 32.6 µM (inactive)
GI50 [14]: 4.59 µM (inactive)
GI50 [15]: > 100 µM (inactive)
GI50 [16]: 24.8 µM (inactive)
GI50 [17]: 36.5 µM (inactive)
GI50 [18]: 44 µM (inactive)
GI50 [19]: 18.1 µM (inactive)
GI50 [20]: > 100 µM (inactive)
GI50 [21]: 20.4 µM (inactive)
GI50 [22]: 33.7 µM (inactive)
GI50 [23]: 15.3 µM (inactive)
GI50 [24]: > 100 µM (inactive)
GI50 [25]: 44.3 µM (inactive)
GI50 [26]: 5.83 µM (inactive)
GI50 [27]: 26.4 µM (inactive)
GI50 [28]: > 100 µM (inactive)
GI50 [29]: 17.8 µM (inactive)
GI50 [30]: 12.9 µM (inactive)
GI50 [31]: 26.1 µM
GI50 [32]: 15.5 µM (inactive)
GI50 [33]: 19.2 µM (inactive)
GI50 [34]: > 100 µM (inactive)
GI50 [35]: > 100 µM (inactive)
GI50 [36]: 19.3 µM (inactive)
GI50 [37]: 24.3 µM (inactive)
GI50 [38]: 22.2 µM (inactive)
GI50 [39]: 16.1 µM (inactive)
GI50 [40]: 13.5 µM (inactive)
GI50 [41]: 10.4 µM (inactive)
GI50 [42]: 41 µM (inactive)
GI50 [43]: 40.1 µM (inactive)
GI50 [44]: 51.8 µM (inactive)
GI50 [45]: > 100 µM (inactive)
GI50 [46]: 25.6 µM (inactive)
GI50 [47]: 14.5 µM (inactive)

COc1ccc(OC)c(SC(CC(=O)c2ccccc2)c2ccccc2)c1 (stereo unspecified)
GI50 [48]: 13.8 µM (inactive)
GI50 [1]: 4.69 µM (inactive)
GI50 [2]: 15.8 µM (inactive)
GI50 [3]: 13 µM (inactive)
GI50 [4]: 20 µM (inactive)
GI50 [49]: 17.2 µM (inactive)
GI50 [5]: 14.6 µM (inactive)
GI50 [6]: 19.1 µM (inactive)
GI50 [7]: 10.1 µM (inactive)
GI50 [8]: 4.32 µM (inactive)
GI50 [9]: 8.24 µM (inactive)
GI50 [10]: 20.9 µM (inactive)
GI50 [11]: 7.45 µM (inactive)
GI50 [13]: 17.9 µM (inactive)
GI50 [14]: 11 µM (inactive)
GI50 [15]: 4.06 µM (inactive)
GI50 [16]: 16.7 µM (inactive)
GI50 [17]: 14.3 µM (inactive)
GI50 [18]: 12.1 µM (inactive)
GI50 [19]: 20.1 µM (inactive)
GI50 [50]: 15.9 µM (inactive)
GI50 [51]: 18.6 µM (inactive)
GI50 [52]: 7.6 µM (inactive)
GI50 [20]: 4.91 µM (inactive)
GI50 [21]: 61.4 µM (inactive)
GI50 [53]: 17.5 µM (inactive)
GI50 [22]: 3.66 µM (inactive)
GI50 [23]: 10.2 µM (inactive)
GI50 [24]: 19.5 µM (inactive)
GI50 [54]: 3.73 µM (inactive)
GI50 [25]: 37.1 µM (inactive)
GI50 [26]: 11.3 µM (inactive)
GI50 [27]: 14.8 µM (inactive)
GI50 [28]: 5.08 µM (inactive)
GI50 [29]: 15.2 µM (inactive)
GI50 [30]: 17.7 µM (inactive)
GI50 [31]: 17.5 µM
GI50 [32]: 19.6 µM (inactive)
GI50 [55]: 14.2 µM (inactive)
GI50 [33]: 15.6 µM (inactive)
GI50 [34]: > 100 µM (inactive)
GI50 [35]: 0.877 µM (active)
GI50 [36]: 7.85 µM (inactive)
GI50 [37]: 13.9 µM (inactive)
GI50 [38]: 15.2 µM (inactive)
GI50 [39]: 33.7 µM (inactive)
GI50 [40]: 18.4 µM (inactive)
GI50 [41]: 19.8 µM (inactive)
GI50 [42]: 3.14 µM (inactive)
GI50 [43]: 27.9 µM (inactive)
GI50 [44]: 17.5 µM (inactive)
GI50 [56]: 28.4 µM (inactive)
GI50 [46]: 18.4 µM (inactive)
GI50 [47]: 15.6 µM (inactive)

c1ccc(COC[C@H]2O[C@@H](c3ccccc3)C[C@@H](OCc3ccccc3)C2OCc2ccccc2)cc1 (stereo partly specified)
GI50 [48]: > 10 µM (inactive)
GI50 [2]: > 10 µM (inactive)
GI50 [4]: > 10 µM (inactive)
GI50 [49]: > 10 µM (inactive)
GI50 [6]: > 10 µM (inactive)
GI50 [7]: > 10 µM (inactive)
GI50 [10]: > 10 µM (inactive)
GI50 [11]: > 10 µM (inactive)
GI50 [13]: > 10 µM (inactive)
GI50 [14]: > 10 µM (inactive)
GI50 [15]: > 10 µM (inactive)
GI50 [16]: > 10 µM (inactive)
GI50 [51]: > 10 µM (inactive)
GI50 [52]: > 10 µM (inactive)
GI50 [53]: > 10 µM (inactive)
GI50 [24]: > 10 µM (inactive)
GI50 [54]: > 10 µM (inactive)
GI50 [26]: > 10 µM (inactive)
GI50 [27]: > 10 µM (inactive)
GI50 [28]: > 10 µM (inactive)
GI50 [29]: > 10 µM (inactive)
GI50 [57]: > 10 µM (inactive)
GI50 [31]: > 10 µM
GI50 [33]: > 10 µM (inactive)
GI50 [35]: > 10 µM (inactive)
GI50 [36]: > 10 µM (inactive)
GI50 [37]: > 10 µM (inactive)
GI50 [38]: > 10 µM (inactive)
GI50 [40]: > 10 µM (inactive)
GI50 [41]: > 10 µM (inactive)
GI50 [42]: > 10 µM (inactive)
GI50 [43]: > 10 µM (inactive)
GI50 [44]: > 10 µM (inactive)
GI50 [45]: > 10 µM (inactive)
GI50 [47]: > 10 µM (inactive)
